Earlier results as cited in patent US20240366823A1, “INSTANT ACTION AEROSOL FOR AIR SANITIZATION AND DISINFECTION” (Reckitt Benckiser LLC, priority 2021, published 2024).

Assays:
[1] = at 20° C.
[2] = ethanol, water

- vapor pressure [1]: 0.02 Pa
Compound: OCCOCCOCCO [TEG, Triethylene glycol]
- solubility [2]: soluble in ethanol and miscible with water
